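A five-concentration, 48-hour dose response in 96-well plates underlies each endpoint, interpolated linearly between surrounding concentrations. At the GI50, growth is halved. TGI is the concentration that stops growth completely.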
Experiments:
Assay in all cases: growth of human tumour cells (NCI), 48 h
[1] = test system: IGROV1 ovarian
[2] = test system: MDA-MB-231 breast
[3] = test system: MALME-3M melanoma
[4] = test system: SK-MEL-5 melanoma
[5] = test system: UO-31 renal
[6] = test system: A549 NSCLC
[7] = test system: UACC-257 melanoma
[8] = test system: SNB-19 CNS
[9] = test system: T-47D breast
[10] = test system: CCRF-CEM leukemia
[11] = test system: SNB-75 CNS
[12] = test system: RPMI-8226 leukemia
[13] = test system: HT29 colon
[14] = test system: OVCAR-8 ovarian
[15] = test system: HCT-116 colon
[16] = test system: UACC-62 melanoma
[17] = test system: KM12 colon
[18] = test system: NCI-H23 lung
[19] = test system: SF-295 CNS
[20] = test system: U251 CNS
[21] = test system: EKVX NSCLC
[22] = test system: OVCAR-4 ovarian
[23] = test system: A498 renal
[24] = test system: DU-145 prostate
[25] = test system: NCI-H226 lung
[26] = test system: MOLT-4 leukemia
[27] = test system: BT-549 breast
[28] = test system: HCT-15 colon
[29] = test system: SK-OV-3 ovarian
[30] = test system: NCI-H460 lung
[31] = test system: HS 578T breast
[32] = test system: SK-MEL-28 melanoma
[33] = test system: HCC-2998 colon
[34] = test system: SF-539 CNS
[35] = test system: NCI/ADR-RES ovarian
[36] = test system: OVCAR-5 ovarian
[37] = test system: TK-10 renal
[38] = test system: NCI-H522 lung
[39] = test system: PC-3 prostate
[40] = test system: ACHN renal
[41] = test system: M14 melanoma
[42] = test system: SK-MEL-2 melanoma
[43] = test system: 786-0 renal
[44] = test system: LOX IMVI melanoma
[45] = test system: MDA-MB-435
[46] = test system: SR leukemia
[47] = test system: MCF7 breast
[48] = test system: SW-620 colon
[49] = test system: RXF 393 renal
[50] = test system: HOP-62 NSCLC
[51] = test system: SF-268 CNS
[52] = test system: SN12C renal
[53] = test system: OVCAR-3 ovarian
[54] = test system: COLO 205 colon
[55] = test system: CAKI-1 renal

Structure (SMILES): CCCC1(CN2c3ccccc3Sc3ccc(Cl)cc32)CCN(CC)C1 (stereo not given)
- GI50 [1]: 1.92 µM
- TGI [1]: 3.69 µM
- GI50 [2]: 1.88 µM
- TGI [2]: 3.55 µM
- GI50 [3]: 1.88 µM
- TGI [3]: 3.63 µM
- GI50 [4]: 1.62 µM
- TGI [4]: 3 µM
- GI50 [5]: 1.51 µM
- TGI [5]: 2.97 µM
- GI50 [6]: 1.78 µM
- TGI [6]: 3.38 µM
- GI50 [7]: 1.77 µM
- TGI [7]: 3.56 µM
- GI50 [8]: 2 µM
- TGI [8]: 3.78 µM
- GI50 [9]: 2.21 µM
- TGI [9]: 5.03 µM
- GI50 [10]: 3.49 µM
- TGI [10]: > 100 µM
- GI50 [11]: 1.77 µM
- TGI [11]: 3.74 µM
- GI50 [12]: 2.59 µM
- TGI [12]: 5.73 µM
- GI50 [13]: 1.88 µM
- TGI [13]: 3.75 µM
- GI50 [14]: 1.78 µM
- TGI [14]: 3.35 µM
- GI50 [15]: 1.81 µM
- TGI [15]: 3.29 µM
- GI50 [16]: 1.92 µM
- TGI [16]: 3.6 µM
- GI50 [17]: 1.65 µM
- TGI [17]: 3.18 µM
- GI50 [18]: 1.75 µM
- TGI [18]: 3.55 µM
- GI50 [19]: 1.7 µM
- TGI [19]: 3.3 µM
- GI50 [20]: 1.66 µM
- TGI [20]: 3.16 µM
- GI50 [21]: 1.77 µM
- TGI [21]: 3.55 µM
- GI50 [22]: 1.75 µM
- TGI [22]: 3.39 µM
- GI50 [23]: 1.6 µM
- TGI [23]: 3.12 µM
- GI50 [24]: 1.81 µM
- TGI [24]: 3.37 µM
- GI50 [25]: 1.74 µM
- TGI [25]: 3.76 µM
- GI50 [26]: 3.27 µM
- TGI [26]: > 100 µM
- GI50 [27]: 1.8 µM
- TGI [27]: 3.37 µM
- GI50 [28]: 1.88 µM
- TGI [28]: 3.84 µM
- GI50 [29]: 1.77 µM
- TGI [29]: 3.45 µM
- GI50 [30]: 1.94 µM
- TGI [30]: 3.67 µM
- GI50 [31]: 1.83 µM
- TGI [31]: 4.88 µM
- GI50 [32]: 1.92 µM
- TGI [32]: 3.48 µM
- GI50 [33]: 1.68 µM
- TGI [33]: 3.27 µM
- GI50 [34]: 1.85 µM
- TGI [34]: 3.61 µM
- GI50 [35]: 1.68 µM
- TGI [35]: 3.36 µM
- GI50 [36]: 1.71 µM
- TGI [36]: 3.48 µM
- GI50 [37]: 1.7 µM
- TGI [37]: 3.32 µM
- GI50 [38]: 1.9 µM
- TGI [38]: 3.64 µM
- GI50 [39]: 1.68 µM
- TGI [39]: 3.38 µM
- GI50 [40]: 1.76 µM
- TGI [40]: 3.31 µM
- GI50 [41]: 1.86 µM
- TGI [41]: 3.49 µM
- GI50 [42]: 2.3 µM
- TGI [42]: 4.28 µM
- GI50 [43]: 1.89 µM
- TGI [43]: 3.52 µM
- GI50 [44]: 1.67 µM
- TGI [44]: 3.37 µM
- GI50 [45]: 1.79 µM
- TGI [45]: 3.47 µM
- GI50 [46]: 3.17 µM
- TGI [46]: > 100 µM
- GI50 [47]: 1.86 µM
- TGI [47]: 3.5 µM
- GI50 [48]: 1.7 µM
- TGI [48]: 3.31 µM
- GI50 [49]: 1.54 µM
- TGI [49]: 2.94 µM
- GI50 [50]: 1.59 µM
- TGI [50]: 3.08 µM
- GI50 [51]: 1.86 µM
- TGI [51]: 3.88 µM
- GI50 [52]: 3.03 µM
- TGI [52]: 8.74 µM
- GI50 [53]: 1.61 µM
- TGI [53]: 3.09 µM
- GI50 [54]: 1.64 µM
- TGI [54]: 3.3 µM
- GI50 [55]: 1.7 µM
- TGI [55]: 3.2 µM
